The text below walks through data of patent publication US12370182B2, “Bicyclic derivatives as GABAA A5 receptor modulators” (RICHTER GEDEON NYRT., priority 2018, dated 2025).

This experiment addresses human recombinant GABAA α5β3γ2 receptor (Homo sapiens (Human), UniProt P18507+P31644). Description: Binding assay, [3H]Ro151788 displacement on membranes of HEK cells. The settings on record: 0.5 nM [3H]Ro151788, 60 minutes at 4° C., Cheng-Prusoff; read-out: hGABAA α5 Ki. How it is done:
The GABAA α5β3γ2 protein used for the receptor binding assay was derived from membranes produced from HEK cells (Millipore CYL3073) expressing the human recombinant GABAA α5β3γ2 receptor. Cells were stored and cultured in-house according to the instructions provided by the vendor (Millipor). Cell pellet was homogenized in 10 times modified Krebs Henseleit buffer (membrane preparation buffer): 20 mM Tris, 120 mM NaCl, 100 mM KCl, 25 mM CaCl2) and 25 mM MgCl2 pH=7.4 at 4° C. using Ultra Turrax (Janke&Kunkel) maximal speed for 15 seconds. The homogenate was centrifuged at 40,000 g for 30 minutes at 4° C. Supernatant was discarded and the resulting pellet was washed in membrane preparation buffer. Pellet was resuspended in membrane preparation buffer and aliquots of 1.4 mL ampulles were stored at −70° C. until use.
Receptor binding assays were performed in 96-well format in deep-well plates. For each 96-well plate one ampulle of membrane homogenate was thawed and diluted in binding buffer (50 mM Tris pH=7.4, 100 mM KCl) and 200 μL was dispensed into each well. Radioligand [^3H]Ro151788 (Perkin Elmer: NET757250UC) was prepared in binding buffer and added to each well in 50 μL volume to give final concentration of 0.5 nM. Test compounds in suitable concentration(s) were added in additional 50 μL. The final assay volume was 300 μL. Incubation was carried out for 60 minutes at 4° C. For non-specific binding 10 μM unlabeled diazepam was used. After incubation samples were filtered over UniFilter® GF/B™ using Filtermate Harvester (Perkin Elmer) and washed with 5×1 mL binding buffer. The plate was dried at 40° C. for an hour and 40 μL Microscint (Perkin Elmer) scintillation cocktail was added to each well. The plate was read in Microbeta (Perkin Elmer).
The specific radioligand binding (SB) was defined as the difference between total binding (Tot) and the non-specific binding (NSB). Results are expressed as a percent inhibition of specific binding obtained in the presence of compound of interest.
For IC50 and Ki determination a minimum of six drug concentrations in triplicate were used. […] Ki values (i.e. inhibition constants) were calculated using the Cheng-Prusoff equation Ki=IC50/[1+(L/KD)], where [L] is the radioligand concentration and KD the affinity of the labelled ligand for receptor. KD was determined from the Saturation analyses.

Chain of human recombinant GABAA α5β3γ2 receptor (P31644 32-462): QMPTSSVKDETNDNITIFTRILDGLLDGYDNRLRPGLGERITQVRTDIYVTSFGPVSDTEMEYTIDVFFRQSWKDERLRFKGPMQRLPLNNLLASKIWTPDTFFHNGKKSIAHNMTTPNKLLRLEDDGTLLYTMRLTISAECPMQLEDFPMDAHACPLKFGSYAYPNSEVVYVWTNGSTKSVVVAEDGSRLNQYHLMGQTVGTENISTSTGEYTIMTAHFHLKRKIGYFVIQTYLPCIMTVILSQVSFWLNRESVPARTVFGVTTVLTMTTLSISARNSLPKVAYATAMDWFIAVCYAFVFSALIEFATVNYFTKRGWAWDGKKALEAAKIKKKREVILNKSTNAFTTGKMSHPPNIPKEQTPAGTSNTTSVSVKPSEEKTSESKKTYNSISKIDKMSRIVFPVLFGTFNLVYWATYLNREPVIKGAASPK
Chain of human recombinant GABAA α5β3γ2 receptor (P28472 26-473 partner): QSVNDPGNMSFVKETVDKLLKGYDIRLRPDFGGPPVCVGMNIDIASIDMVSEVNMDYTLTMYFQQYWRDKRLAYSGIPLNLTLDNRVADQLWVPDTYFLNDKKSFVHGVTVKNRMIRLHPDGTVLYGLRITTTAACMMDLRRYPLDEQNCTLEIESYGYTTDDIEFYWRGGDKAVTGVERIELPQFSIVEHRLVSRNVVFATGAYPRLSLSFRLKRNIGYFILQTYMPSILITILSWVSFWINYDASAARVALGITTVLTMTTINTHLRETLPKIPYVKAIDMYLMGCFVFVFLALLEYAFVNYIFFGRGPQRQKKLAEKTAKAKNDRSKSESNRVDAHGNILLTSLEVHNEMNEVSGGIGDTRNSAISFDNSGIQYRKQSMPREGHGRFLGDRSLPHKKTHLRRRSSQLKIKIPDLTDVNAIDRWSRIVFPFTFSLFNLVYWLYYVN
Chain of human recombinant GABAA α5β3γ2 receptor (P18507 40-475): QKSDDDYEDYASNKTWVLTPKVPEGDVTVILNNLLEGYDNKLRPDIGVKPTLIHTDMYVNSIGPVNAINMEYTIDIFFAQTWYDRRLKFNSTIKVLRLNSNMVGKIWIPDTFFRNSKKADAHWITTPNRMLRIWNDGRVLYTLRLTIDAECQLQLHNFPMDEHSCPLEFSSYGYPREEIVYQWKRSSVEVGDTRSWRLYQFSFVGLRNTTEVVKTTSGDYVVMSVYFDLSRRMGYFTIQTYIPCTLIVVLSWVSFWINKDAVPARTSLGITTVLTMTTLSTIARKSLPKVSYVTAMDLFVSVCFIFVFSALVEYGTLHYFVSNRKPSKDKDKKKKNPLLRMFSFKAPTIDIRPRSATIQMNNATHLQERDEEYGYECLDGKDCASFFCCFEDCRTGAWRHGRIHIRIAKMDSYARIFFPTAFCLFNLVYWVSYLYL

One may read the Ki as a measure of affinity in units of concentration, obtained from inhibition or displacement. As for `CC(=O)N1CCc2nc(OCc3c(C)nnn3-c3ccc(Cl)cc3)ccc2C1` [Example 36, 1-(2-{[1-(4-chlorophenyl)-4-methyl-1H-1,2,3-triazol-5-yl]methoxy}-5,6,7,8-tetrahydro-1,6-naphthyridin-6-yl)ethan-1-one], the Ki was found to be 0.0098 µM. For the compound `Cc1nnn(-c2ccc(F)cc2)c1COc1ccc2c(n1)CCN(C(=O)c1ccc(C(F)(F)F)nc1)C2` [Example 37, 2-{[1-(4-fluorophenyl)-4-methyl-1H-1,2,3-triazol-5-yl]methoxy}-6-[6-(trifluoromethyl)pyridine-3-carbonyl]-5,6,7,8-tetrahydro-1,6-naphthyridine], the Ki is 0.069 µM. With `Cc1nnn(-c2ccc(Cl)cc2)c1COc1ccc2c(n1)CCN(C(=O)[C@H]1CCOC1)C2` [Example 38, 2-{[1-(4-chlorophenyl)-4-methyl-1H-1,2,3-triazol-5-yl]methoxy}-6-[(3S)-oxolane-3-carbonyl]-5,6,7,8-tetrahydro-1,6-naphthyridine], the Ki was 0.018 µM.

On to `Cc1nnn(-c2ccc(F)cc2)c1COc1ccc2c(n1)CCN(C(=O)c1cccnc1)C2` [Example 39, 2-{[1-(4-fluorophenyl)-4-methyl-1H-1,2,3-triazol-5-yl]methoxy}-6-(pyridine-3-carbonyl)-5,6,7,8-tetrahydro-1,6-naphthyridine], for which the Ki is 0.024 µM. Regarding `Cc1nnn(-c2ccc(F)cc2)c1COc1ccc2c(n1)CCN(C(=O)[C@@H]1CCC(=O)N1C)C2` [Example 40, (5S)-5-(2-{[1-(4-fluorophenyl)-4-methyl-1H-1,2,3-triazol-5-yl]methoxy}-5,6,7,8-tetrahydro-1,6-naphthyridine-6-carbonyl)-1-methylpyrrolidin-2-one], the Ki is 0.056 µM. As to `Cc1nnn(-c2ccc(F)cc2)c1COc1ccc2c(n1)CCN(C(=O)[C@H]1CCC(=O)N1C)C2` [Example 41, (5R)-5-(2-{[1-(4-fluorophenyl)-4-methyl-1H-1,2,3-triazol-5-yl]methoxy}-5,6,7,8-tetrahydro-1,6-naphthyridine-6-carbonyl)-1-methylpyrrolidin-2-one], the inhibition constant Ki was 0.067 µM. For `COCC(=O)N1CCc2nc(OCc3c(C)nnn3-c3ccc(Cl)cc3)ccc2C1` [Example 42, 1-(2-{[1-(4-chlorophenyl)-4-methyl-1H-1,2,3-triazol-5-yl]methoxy}-5,6,7,8-tetrahydro-1,6-naphthyridin-6-yl)-2-methoxyethan-1-one], the Ki turned out to be 0.013 µM. For `CCN1CC(C(=O)N2CCc3nc(OCc4c(C)nnn4-c4ccc(F)cc4)ccc3C2)CC1=O` (centres unmarked) [Example 43, 1-ethyl-4-(2-{[1-(4-fluorophenyl)-4-methyl-1H-1,2,3-triazol-5-yl]methoxy}-5,6,7,8-tetrahydro-1,6-naphthyridine-6-carbonyl)pyrrolidin-2-one], the inhibition constant (Ki) was 0.03 µM. Take `Cc1nnn(-c2ccc(F)cc2)c1COc1ccc2c(n1)CCN(C(=O)C1CC(=O)N(C(C)C)C1)C2` (centres unmarked) [Example 44, 4-(2-{[1-(4-fluorophenyl)-4-methyl-1H-1,2,3-triazol-5-yl]methoxy}-5,6,7,8-tetrahydro-1,6-naphthyridine-6-carbonyl)-1-(propan-2-yl)pyrrolidin-2-one]: the Ki was 0.054 µM. For `Cc1nnn(-c2ccc(F)cc2)c1COc1ccc2c(n1)CCN(C(=O)C1CCC(=O)N(C)C1)C2` (centres unmarked) [Example 46, 5-(2-{[1-(4-fluorophenyl)-4-methyl-1H-1,2,3-triazol-5-yl]methoxy}-5,6,7,8-tetrahydro-1,6-naphthyridine-6-carbonyl)-1-methylpiperidin-2-one], the inhibition constant (Ki) worked out at 0.084 µM. Take `Cc1onc(-c2ccc(F)cc2)c1COc1ccc2c(n1)CCN(C(=O)CCS(C)(=O)=O)C2` [Example 48, 1-(2-{[3-(4-fluorophenyl)-5-methyl-1,2-oxazol-4-yl]methoxy}-5,6,7,8-tetrahydro-1,6-naphthyridin-6-yl)-3-methanesulfonylpropan-1-one]: the inhibition constant (Ki) worked out at 0.033 µM.
